The subject of one assay is wound healing. As to conditions: cited from earlier work; for restoring connective tissue deposition / restoring wound contraction: antagonism of cortisone inhibition of wound healing.
In assay [1] the test system is wound healing in rats (sponge disc implants). Kind of assay: Subcutaneous polyvinylchloride sponge disc implants in rats: collagen content and breaking strength. The assay is classed as in vivo, rat. The text has this: (§1) Twenty-two male rats weighing between 300 g and 325 g were anesthetized, after which their backs and abdomens were shaved and washed with 70% ethanol. Three modified polyvinylchloride sponge discs 2 mm thick and 15 mm in diameter were implanted in each rat abdominally in subcutaneous pockets made under the skin. Two of the implants were cut in half and rejoined before the implantation, and the remaining disc was sandwiched between two silicone discs which forced granulation tissue infiltration to occur from the periphery of the disc. A single 15 mm×15 mm square full excision wound was made on the back and the wound edges tattooed.
(§2) The rats were then divided into four groups. A first, or control, group of four rats received sham injections daily. A second group of four rats received daily intramuscular injections of 10 mg of cortisone acetate. Cortisone is known to be an inhibitor of wound healing. A third group of seven rats received daily intramuscular injections of 0.3 mg of amide-terminated Magainin II. A fourth group of seven rats received daily intramuscular injections of 10 mg of cortisone acetate and 0.3 mg of Magainin II at separate sites. At seven days, rat weights were recorded, wound sizes measured, and the implants harvested. The staple which joined the two disc halves together was carefully removed and the breaking strength measured. Collagen content from the implant halves from each treatment group was measured by weighing the pepsin extracted native collagen. The sponge halves are homogenized in 0.5M ice-cold acetic acid containing 0.1 mg of pepsin per ml. The homogenate was stirred for 24 hours at 4° C., centrifuged, and supernatants saved. The native solubilized collagen was isolated by adding sodium chloride to 10% w/v. The salt precipitate was collected by centrifugation (10,000× g for 10 min.) and then taken up in 145 mM potassium phosphate buffer pH7.6, exhaustively dialyzed against 1 mM HCl, lyophilized and its dry weight recorded. Confirmation of collagen purity was made by SDS polyacrylamide gel electrophoresis. Pepsin digestion extracts only native collagen, needed for the formation of collagen fibers. The accumulations of collagen in the early stages of healing are responsible for gain in wound tensile strength. Collagen content from the implants taken from the group treated with cortisone acetate alone averaged 0.82 mg/sponge, as compared with 3.43 mg/sponge for the control group.
The group treated with Magainin II alone has a average wound breaking strength of 415 g.

Assay [2] concerns full excision wound in rats. The experiment in a line: 15 mm×15 mm full excision wound on the back of rats: wound contraction. Format: in vivo, rat. As to conditions: for average wound contraction: seven days.
Source text: as §1, §2

Setting [3] is: substance alone, daily intramuscular injections (Magainin II 0.3 mg; cortisone acetate 10 mg), implants harvested at seven days, control group 3.43.

No end group written: not given here.

On to “growth hormone: other antagonist of cortisone inhibition, effective in restoring connective tissue deposition”, for which, in the assay on wound healing, the “restoring connective tissue deposition” value is recorded as “effective” and the restoring wound contraction result is recorded as “ineffective”.
For the compound “GIGKFLHSAKKFGKAFVGEIMNS-NH2 [Magainin II]”, the “average collagen content of implants” value in assay [1] (0.3 mg Magainin II plus 10 mg cortisone acetate daily intramuscular at separate sites, seven days, cortisone acetate alone 0.82) stood at 3.20 mg/sponge; in assay [1] (setting [3]) it was 3.82 mg/sponge. For the same compound, the “average wound breaking strength” value in assay [1] (0.3 mg Magainin II plus 10 mg cortisone acetate daily intramuscular at separate sites, seven days, cortisone acetate alone 195) was 320 g. For the same compound, the stimulating wound healing result in assay [2] (rats) is on record as “effective”. The “cortisone inhibition of wound healing (collagen deposition and wound contraction)” value in assay [2] (rats treated with cortisone acetate and Magainin II) was “antagonistic”. Moreover, the average wound contraction in assay [2] (rats, 0.3 mg Magainin II plus 10 mg cortisone acetate daily intramuscular at separate sites, cortisone acetate alone 28) was 53%; in assay [2] (rats, substance alone, daily intramuscular injections (Magainin II 0.3 mg; cortisone acetate 10 mg), control group 67) it was 65%.
In the case of Vitamin A, in the assay with wound healing, the “restoring connective tissue deposition” value is on record as “effective” and the restoring wound contraction entry is reported as “ineffective”.
In the case of `C[C@]12CCC(=O)C=C1CC[C@@H]1[C@@H]2C(=O)C[C@@]2(C)[C@H]1CC[C@]2(O)C(=O)CO` [Cortisone], the “effect on wound healing” value in the assay with wound healing (known) is “inhibitor”.
Turning to `CC(=O)OCC(=O)[C@@]1(O)CC[C@H]2[C@@H]3CCC4=CC(=O)CC[C@]4(C)[C@H]3C(=O)C[C@@]21C` [cortisone acetate, reference compound], in assay [1] (setting [3]), the “average collagen content of implants” value is 0.82 mg/sponge.

The values above are taken from patent USRE35492E, “Wound treatment employing biologically active ion channel forming peptides and proteins” (Magainin Pharmaceuticals, Inc., priority 1994, dated 1997).
